Tested on: hallmark gene sets in kidney tissue of g-ddY mice
Assay: Gene Set Enrichment Analysis (GSEA) of hallmark gene sets, g-ddY mouse kidney RNA-seq
Assay type: in vivo

## CCCCN(CCCC)C(=O)CN1C[C@H](c2ccc3c(c2)OCO3)[C@@H](C(=O)O)[C@@H]1c1ccc(OC)cc1 [Atrasentan, (2R,3R,4S)-4-(1,3-benzodioxol-5-yl)-1-[2-(dibutylamino)-2-oxoethyl]-2-(4-methoxyphenyl)pyrrolidine-3-carboxylic acid]
20 mg/kg/day vs. control
  HALLMARK_INTERFERON_ALPHA_RESPONSE NES: −2.44
  HALLMARK_INTERFERON_GAMMA_RESPONSE NES: −2.88
  HALLMARK_KRAS_SIGNALING_DN NES: 1.32
  HALLMARK_KRAS_SIGNALING_UP NES: −2.65
  HALLMARK_M ITOTIC_SPINDLE NES: −1.79
  HALLMARK_MTORC1_SIGNALING NES: 1.23
  HALLMARK_MYC_TARGETS_V1 NES: −0.81
  HALLMARK_MYC_TARGETS_V2 NES: 0.76
  HALLMARK_MYOGENESIS NES: −1.60
  HALLMARK_NOTCH_SIGNALING NES: 0.69
  HALLMARK_OXIDATIVE_PHOSPHORYLATION NES: 3.38
  HALLMARK_P53_PATHWAY NES: −1.3
  HALLMARK_PANCREAS_BETA_CELLS NES: 0.98
  HALLMARK_PEROXISOME NES: 1.88
  HALLMARK_PI3K_AKT_MTOR SIGNALING NES: −1.24
  HALLMARK_PROTEIN_SECRETION NES: 1.08
  HALLMARK_REACTIVE_OXYGEN_SPECIES_PATHWAY NES: 1.61
  HALLMARK_SPERMATOGENESIS NES: 1.17
  HALLMARK_TGF_BETA_SIGNALING NES: −1.96
  HALLMARK_TNFA_SIGNALING_VIA_NFKB NES: −3.06
  HALLMARK_UNFOLDED_PROTEIN_RESPONSE NES: −0.64
  HALLMARK_UV_RESPONSE_DN NES: −2.36
  HALLMARK_UV_RESPONSE_UP NES: 1.15
  HALLMARK_WNT_BETA_CATENIN_SIGNALING NES: −1.57
  HALLMARK_XENOBIOTIC_METABOLISM NES: 2.16
30 mg/kg/day
  cell proliferation associated signaling (mitotic spindle and G2M checkpoint): reduced
  inflammatory response signaling: reduced
30 mg/kg/day vs. control
  HALLMARK_ADIPOGENESIS NES: 2.64
  HALLMARK_ALLOGRAFT_REJECTION NES: −2.12
  HALLMARK_ANDROGEN_RESPONSE NES: 0.92
  HALLMARK_ANGIOGENESIS NES: −1.86
  HALLMARK_APICAL_JUNCTION NES: −2.00
  HALLMARK_APICAL_SURFACE NES: −1.65
  HALLMARK_APOPTOSIS NES: −1.52
  HALLMARK_BILE_ACID_METABOLISM NES: 2.40
  HALLMARK_CHOLESTEROL_HOMEOSTASIS NES: 1.14
  HALLMARK_COAGULATION NES: −1.56
  HALLMARK_COMPLEMENT NES: −1.56
  HALLMARK_DNA_REPAIR NES: 1.52
  HALLMARK_E2F_TARGETS NES: −1.46
  HALLMARK_EPITHELIAL_MESENCHYMAL_TRANSITION NES: −2.60
  HALLMARK_ESTROGEN_RESPONSE_EARLY NES: −1.22
  HALLMARK_ESTROGEN_RESPONSE_LATE NES: 1.16
  HALLMARK_FATTY_ACID_METABOLISM NES: 2.90
  HALLMARK_G2M_CHECKPOINT NES: −1.92
  HALLMARK_GLYCOLYSIS NES: 1.96
  HALLMARK_HEDGEHOG_SIGNALING NES: −1.94
  HALLMARK_HEME_METABOLISM NES: 1.99
  HALLMARK_HYPOXIA NES: −1.18
  HALLMARK_IL2_STAT5_SIGNALING NES: −1.56
  HALLMARK_IL6_JAK_STAT3_SIGNALING NES: −2.33
  HALLMARK_INFLAMMATORY_RESPONSE NES: −2.40
  HALLMARK_INTERFERON_ALPHA_RESPONSE NES: −1.80
  HALLMARK_INTERFERON_GAMMA_RESPONSE NES: −2.26
  HALLMARK_KRAS_SIGNALING_DN NES: −1.12
  HALLMARK_KRAS_SIGNALING_UP NES: −2.31
  HALLMARK_M ITOTIC_SPINDLE NES: −2.02
  HALLMARK_MTORC1_SIGNALING NES: 1.81
  HALLMARK_MYC_TARGETS_V1 NES: 1.26
  HALLMARK_MYC_TARGETS_V2 NES: 0.92
  HALLMARK_MYOGENESIS NES: −1.30
  HALLMARK_NOTCH_SIGNALING NES: −1.15
  HALLMARK_OXIDATIVE_PHOSPHORYLATION NES: 3.69
  HALLMARK_P53_PATHWAY NES: 1.10
  HALLMARK_PANCREAS_BETA_CELLS NES: 1.07
  HALLMARK_PEROXISOME NES: 2.39
  HALLMARK_PI3K_AKT_MTOR SIGNALING NES: 0.83
  HALLMARK_PROTEIN_SECRETION NES: 1.73
  HALLMARK_REACTIVE_OXYGEN_SPECIES_PATHWAY NES: 1.98
  HALLMARK_SPERMATOGENESIS NES: 1.21
  HALLMARK_TGF_BETA_SIGNALING NES: −1.55
  HALLMARK_TNFA_SIGNALING_VIA_NFKB NES: −2.63
  HALLMARK_UNFOLDED_PROTEIN_RESPONSE NES: 0.78
  HALLMARK_UV_RESPONSE_DN NES: −2.39
  HALLMARK_UV_RESPONSE_UP NES: 1.63
  HALLMARK_WNT_BETA_CATENIN_SIGNALING NES: −1.63
  HALLMARK_XENOBIOTIC_METABOLISM NES: 2.38

Reference: patent US20210353593A1 (Chinook Therapeutics, Inc., priority 2019, published 2021)
